# Measurements reported in patent US7456291B2, “Use of a vitamin combination for the treatment of primary headaches” (priority 2000, dated 2008).
# Like-named read-outs stand apart in the source and are kept apart here.
# Tests used:
# [1] = system: primary headaches (common, classical, complicated migraine, cluster headache); test: Clinical experimentation in primary headache forms, overall statements; details: single agent; for effectiveness in combating the forms of headache considered: systemic administration at the typical dosage used for pellagra
# [2] = system: cluster headaches; test: Clinical cases: treatment of cluster headaches; type: in vivo, human patient; details: 2nd series, 4th case; 50 mg nicotinamide alone orally twice a day
# Description: 4th case—a person with cluster headaches. The patient had been suffering from nocturnal headaches for about 15 years. The headaches started about 3 hours after sleep onset and presented a left orbital pain, lachrymation, nasal congestion and an oedema of the left cheek.
# They continued with the therapy for another 15 days and then the dosage was halved and treatment continued for 15 days a month.
# 4th case—a person with cluster headaches. The patient suffered from cluster headaches that made them wake up in the night with lacerating head pains. The pains were accompanied by lachrymation and rhinorrhea.
# [3] = system: classical migraine (migraine with an aura); test: Clinical cases: treatment of classical migraine (migraine with an aura); type: in vivo, human patient; details: 2nd series, 50 mg nicotinamide alone orally twice a day
# Description: 1st case—a person with a classical migraine (or a migraine with an aura). The patient had been suffering from classical migraine symptoms for 30 years. Initially, the symptoms were located in the right temporal region and later spread to the top and to the left temple with characteristic pulsations, accompanied by photophobia, vertigo and buzzing ears. The attacks lasted for about 10 days on a monthly basis.
# Later, during a migraine attack, the patient started a treatment based on 50 mg of nicotinamide+2.5 mg of riboflavin taken orally twice a day. […] During this period the patient had completely suspended the old therapy. They continued with the new treatment, according to the present invention, for another 7 days to then temporarily suspend it. Later on, the dosage was halved for 10 days a month for preventive purposes.
# 1st case—person one with a classical migraine (or migraine with an aura). The patient had been suffering from classical migraine symptoms for 15 years and had photophobia, flashing scotoma and vertigo. […] The symptoms were located on the right side, occurred about twice a month and lasted a week, on average. When suffering from migraines the patient could not perform any activity. The acute episodes were preceded by photophobia, buzzing ears and visual disorders (scotoma). […]
# [4] = system: common migraine (migraine without an aura); test: Clinical cases: treatment of common migraine (migraine without an aura); type: in vivo, human patient; details: 2nd series, 3rd case; 50 mg nicotinamide alone orally twice a day
# [5] = system: complicated migraine; test: Clinical cases: treatment of complicated migraine; type: in vivo, human patient; details: 2nd series, 2nd case; 50 mg nicotinamide alone orally twice a day
# [6] = system: primary headaches (common, classical, complicated migraine, cluster headache); details: human, in vivo
SMILES,effectiveness in combating the forms of headache considered [1],secondary reactions reported for high doses ([1]; systemic administration in doses well below those for hypercholesterolemy),time until the headaches attenuated [2],time until migraine symptoms attenuated ([3]; 1st case one),complete disappearance of migraine symptoms ([3]; 1st case),time until the migraine returned (lesser intensity) under continued treatment ([3]; 1st case),time until the migraine was partially attenuated [4],time until the problem was attenuated [5],secondary reactions reported for high doses [6]
NC(=O)c1cccnc1 [nicotinamide],not very effective,does not lead to the secondary reactions,5 to 6 days,5 days,did not disappear completely,about 10 days,about 5 days,6 days,
"O=C(O)c1cccnc1 [nicotinic acid, 3-pyridincarboxylic acid]",not very effective,,,,,,,,does not lead to the secondary reactions
